Experimental findings from US8524725B2, “Methods of using diaminopyrimidine as P2X3 and P2X⅔ receptor modulators for treatment of respiratory and gastrointestinal diseases” (Roche Palo Alto LLC, priority 2005, dated 2013) are described below.

Broadly, the melting point is the temperature, or range, at which the solid turns liquid.

Counter-ions that a name gives are not always drawn.

Compound `COc1cc(Cc2cnc(NCCO)nc2N)c(C(C)C)cc1OC` (as salt: HCl) returned a melting point greater than 300 °C.

`CNC(=O)OC[C@@H](C)Nc1ncc(Oc2cc(Cl)c(OC)cc2C(C)C)c(N)n1` (stereo in doubt) gave a melting point of 63.5 to 69.4 °C. In turn, `COc1cc(C(C)C)c(Oc2cnc(N[C@H](C)CO)nc2N)cc1Cl` (as salt: hydrochloride) returned a melting point of 111.4 to 116.9 °C. Compound `COc1cc(C(C)C)c(Oc2cnc(N)nc2N)cc1Cl` (as salt: trifluoroacetic acid salt) returned a melting point of 135 to 138.5 °C.
